Measured values as given in ChEMBL document CHEMBL3885861, “Open TG-GATES”.

Species on record: Rattus norvegicus
Assay: Open TG-GATES - Regimen: Daily Repeat
Type: toxicity, organism-based, Sprague-Dawley
Set-up: regimen Daily Repeat, gender Male, age 6 weeks
Settings: in vivo, po, route gavage; for APTT / Bas / Eos / Fbg / Hb / Ht / Lym / MCH / MCHC / MCV / Mono / Neu / PT / Plat / RBC / Ret / WBC: tissue Blood; for KIDNEY_L / KIDNEY_R / KIDNEY_TOTAL: tissue Kidney; for LIVER: tissue Liver; for A/G / ALP / ALT / AST / BUN / CRE / Ca / Cl / DBIL / GLC / IP / K / LDH / Na / PL / RALB / TBIL / TC / TG / TP / gamma-GTP: tissue Plasma
[1] = 0 mg/kg, 72 h, dose level Control, time 3 day
[2] = 0 mg/kg, […], dose level Control, time 7 day
[3] = 0 mg/kg, […], dose level Control, time 14 day
[4] = 0 mg/kg, […], dose level Control, time 28 day
[5] = 30 mg/kg, 72 h, dose level Low, time 3 day
[6] = 30 mg/kg, […], dose level Low, time 7 day
[7] = 30 mg/kg, […], dose level Low, time 14 day
[8] = 30 mg/kg, […], dose level Low, time 28 day

CC[C@H]1[C@@H]2C[C@H]3[C@@H]4N(C)c5ccccc5[C@]45C[C@@H]([C@@H]2[C@H]5O)N3[C@@H]1O [AJMALINE]
TERMINAL_BW [1]: 211 g
APTT [1]: 16.4 s
Bas [1]: 0%
Eos [1]: 1%
Fbg [1]: 218.4 mg/dL
Hb [1]: 13 g/dL
Ht [1]: 40.1%
Lym [1]: 75.8%
MCH [1]: 21.1 pg
MCHC [1]: 32.4%
MCV [1]: 65 fL
Mono [1]: 10.4%
Neu [1]: 13%
PT [1]: 11.6 s
Plat [1]: 115.1 x10_4/uL
RBC [1]: 617.4 x10_4/ul
Ret [1]: 8%
WBC [1]: 104.3 x10_2/uL
KIDNEY_L [1]: 0.9 g
KIDNEY_R [1]: 1 g
KIDNEY_TOTAL [1]: 1.9 g
LIVER [1]: 10.3 g
A/G [1]: 2.2
ALP [1]: 1003.6 IU/L
ALT [1]: 37 IU/L
AST [1]: 63.8 IU/L
BUN [1]: 19.4 mg/dL
CRE [1]: 0.5 mg/dL
Ca [1]: 11.1 mg/dL
Cl [1]: 102.8 meq/L
DBIL [1]: 0.008 mg/dL
GLC [1]: 199.8 mg/dL
IP [1]: 7.4 mg/dL
K [1]: 4.5 meq/L
LDH [1]: 87.6 IU/L
Na [1]: 140 meq/L
PL [1]: 152.6 mg/dL
RALB [1]: 3.9 g/dL
TBIL [1]: 0.3 mg/dL
TC [1]: 79.4 mg/dL
TG [1]: 101.4 mg/dL
TP [1]: 5.8 g/dL
gamma-GTP [1]: 1.8 IU/L
TERMINAL_BW [2]: 249.2 g
TERMINAL_BW [3]: 302.2 g
TERMINAL_BW [4]: 382 g
APTT [2]: 16.1 s
Bas [2]: 0%
Eos [2]: 1%
Fbg [2]: 220.4 mg/dL
Hb [2]: 13 g/dL
Ht [2]: 39.8%
Lym [2]: 82.2%
MCH [2]: 20.6 pg
MCHC [2]: 32.6%
MCV [2]: 63.3 fL
Mono [2]: 5%
Neu [2]: 12.2%
PT [2]: 11.2 s
Plat [2]: 125.7 x10_4/uL
RBC [2]: 629.6 x10_4/ul
Ret [2]: 7%
WBC [2]: 107.8 x10_2/uL
APTT [3]: 17.8 s
Bas [3]: 0%
Eos [3]: 0.8%
Fbg [3]: 211.6 mg/dL
Hb [3]: 13.6 g/dL
Ht [3]: 41.6%
Lym [3]: 84.6%
MCH [3]: 20.6 pg
MCHC [3]: 32.9%
MCV [3]: 62.5 fL
Mono [3]: 4%
Neu [3]: 11%
PT [3]: 11.4 s
Plat [3]: 121.9 x10_4/uL
RBC [3]: 664.2 x10_4/ul
Ret [3]: 3.8%
WBC [3]: 121.7 x10_2/uL
APTT [4]: 17.6 s
Bas [4]: 0%
Eos [4]: 1.2%
Fbg [4]: 226.2 mg/dL
Hb [4]: 15.2 g/dL
Ht [4]: 45.3%
Lym [4]: 83.8%
MCH [4]: 19.1 pg
MCHC [4]: 33.5%
MCV [4]: 57 fL
Mono [4]: 5.6%
Neu [4]: 9.6%
PT [4]: 11.4 s
Plat [4]: 125.9 x10_4/uL
RBC [4]: 794.6 x10_4/ul
Ret [4]: 2%
WBC [4]: 105.2 x10_2/uL
KIDNEY_L [2]: 1 g
KIDNEY_R [2]: 1.1 g
KIDNEY_TOTAL [2]: 2.1 g
KIDNEY_L [3]: 1.2 g
KIDNEY_R [3]: 1.3 g
KIDNEY_TOTAL [3]: 2.5 g
KIDNEY_L [4]: 1.4 g
KIDNEY_R [4]: 1.4 g
KIDNEY_TOTAL [4]: 2.9 g
LIVER [2]: 12.3 g
LIVER [3]: 13.9 g
LIVER [4]: 16.5 g
A/G [2]: 1.9
ALP [2]: 1031.8 IU/L
ALT [2]: 37.4 IU/L
AST [2]: 67 IU/L
BUN [2]: 18.4 mg/dL
CRE [2]: 0.5 mg/dL
Ca [2]: 11.1 mg/dL
Cl [2]: 104.2 meq/L
DBIL [2]: 0.004 mg/dL
GLC [2]: 206.8 mg/dL
IP [2]: 7.9 mg/dL
K [2]: 4.4 meq/L
LDH [2]: 80.4 IU/L
Na [2]: 142.4 meq/L
PL [2]: 154 mg/dL
RALB [2]: 3.7 g/dL
TBIL [2]: 0.3 mg/dL
TC [2]: 79.8 mg/dL
TG [2]: 126.4 mg/dL
TP [2]: 5.7 g/dL
gamma-GTP [2]: 1.2 IU/L
A/G [3]: 1.9
ALP [3]: 756.6 IU/L
ALT [3]: 31 IU/L
AST [3]: 61.4 IU/L
BUN [3]: 20.6 mg/dL
CRE [3]: 0.5 mg/dL
Ca [3]: 10.9 mg/dL
Cl [3]: 104.2 meq/L
DBIL [3]: 0.008 mg/dL
GLC [3]: 206 mg/dL
IP [3]: 7.2 mg/dL
K [3]: 4.9 meq/L
LDH [3]: 90.6 IU/L
Na [3]: 141.6 meq/L
PL [3]: 148.4 mg/dL
RALB [3]: 3.8 g/dL
TBIL [3]: 0.3 mg/dL
TC [3]: 69.4 mg/dL
TG [3]: 126 mg/dL
TP [3]: 5.8 g/dL
gamma-GTP [3]: 1.4 IU/L
A/G [4]: 1.9
ALP [4]: 557 IU/L
ALT [4]: 29.8 IU/L
AST [4]: 57.6 IU/L
BUN [4]: 19.4 mg/dL
CRE [4]: 0.6 mg/dL
Ca [4]: 10.3 mg/dL
Cl [4]: 105.2 meq/L
DBIL [4]: 0.016 mg/dL
GLC [4]: 195 mg/dL
IP [4]: 6.3 mg/dL
K [4]: 4.7 meq/L
LDH [4]: 78.2 IU/L
Na [4]: 142.6 meq/L
PL [4]: 139 mg/dL
RALB [4]: 4 g/dL
TBIL [4]: 0.3 mg/dL
TC [4]: 62.6 mg/dL
TG [4]: 136.4 mg/dL
TP [4]: 6.2 g/dL
gamma-GTP [4]: 1.6 IU/L
TERMINAL_BW [5]: 214.3 g
APTT [5]: 16.2 s
Bas [5]: 0%
Eos [5]: 1.2%
Fbg [5]: 210 mg/dL
Hb [5]: 13 g/dL
Ht [5]: 39.3%
Lym [5]: 78%
MCH [5]: 21.7 pg
MCHC [5]: 33%
MCV [5]: 65.7 fL
Mono [5]: 8.4%
Neu [5]: 12.8%
PT [5]: 11.7 s
Plat [5]: 118 x10_4/uL
RBC [5]: 599 x10_4/ul
Ret [5]: 8.9%
WBC [5]: 93 x10_2/uL
KIDNEY_L [5]: 0.9 g
KIDNEY_R [5]: 0.9 g
KIDNEY_TOTAL [5]: 1.8 g
LIVER [5]: 10.4 g
A/G [5]: 2.1
ALP [5]: 904.4 IU/L
ALT [5]: 36.2 IU/L
AST [5]: 66.6 IU/L
BUN [5]: 18.2 mg/dL
CRE [5]: 0.5 mg/dL
Ca [5]: 11.1 mg/dL
Cl [5]: 102.6 meq/L
DBIL [5]: 0.024 mg/dL
GLC [5]: 198.2 mg/dL
IP [5]: 7.2 mg/dL
K [5]: 4.3 meq/L
LDH [5]: 113 IU/L
Na [5]: 139.6 meq/L
PL [5]: 141.4 mg/dL
RALB [5]: 3.8 g/dL
TBIL [5]: 0.3 mg/dL
TC [5]: 78.2 mg/dL
TG [5]: 85 mg/dL
TP [5]: 5.6 g/dL
gamma-GTP [5]: 0.8 IU/L
TERMINAL_BW [6]: 248 g
TERMINAL_BW [7]: 297.8 g
TERMINAL_BW [8]: 375.4 g
APTT [6]: 17 s
Bas [6]: 0%
Eos [6]: 1.2%
Fbg [6]: 229.4 mg/dL
Hb [6]: 13 g/dL
Ht [6]: 39.1%
Lym [6]: 75.4%
MCH [6]: 21.4 pg
MCHC [6]: 33.3%
MCV [6]: 64.2 fL
Mono [6]: 10.2%
Neu [6]: 13.6%
PT [6]: 11.4 s
Plat [6]: 118.3 x10_4/uL
RBC [6]: 609.8 x10_4/ul
Ret [6]: 7%
WBC [6]: 106.1 x10_2/uL
APTT [7]: 16.7 s
Bas [7]: 0%
Eos [7]: 1%
Fbg [7]: 224 mg/dL
Hb [7]: 13.9 g/dL
Ht [7]: 41.9%
Lym [7]: 85%
MCH [7]: 20.3 pg
MCHC [7]: 33.1%
MCV [7]: 61.4 fL
Mono [7]: 4.2%
Neu [7]: 10%
PT [7]: 11.1 s
Plat [7]: 121.6 x10_4/uL
RBC [7]: 683.4 x10_4/ul
Ret [7]: 4.3%
WBC [7]: 138.2 x10_2/uL
APTT [8]: 17.2 s
Bas [8]: 0%
Eos [8]: 1%
Fbg [8]: 221.6 mg/dL
Hb [8]: 15.4 g/dL
Ht [8]: 45.5%
Lym [8]: 83%
MCH [8]: 20.4 pg
MCHC [8]: 33.8%
MCV [8]: 60.3 fL
Mono [8]: 4.6%
Neu [8]: 11.4%
PT [8]: 11.2 s
Plat [8]: 96.6 x10_4/uL
RBC [8]: 754.8 x10_4/ul
Ret [8]: 2.1%
WBC [8]: 110.2 x10_2/uL
KIDNEY_L [6]: 1 g
KIDNEY_R [6]: 1 g
KIDNEY_TOTAL [6]: 2 g
KIDNEY_L [7]: 1.2 g
KIDNEY_R [7]: 1.2 g
KIDNEY_TOTAL [7]: 2.3 g
KIDNEY_L [8]: 1.3 g
KIDNEY_R [8]: 1.3 g
KIDNEY_TOTAL [8]: 2.7 g
LIVER [6]: 12 g
LIVER [7]: 13.8 g
LIVER [8]: 16.1 g
A/G [6]: 1.8
ALP [6]: 975.8 IU/L
ALT [6]: 34.8 IU/L
AST [6]: 65.6 IU/L
BUN [6]: 20.2 mg/dL
CRE [6]: 0.5 mg/dL
Ca [6]: 11.4 mg/dL
Cl [6]: 104.4 meq/L
DBIL [6]: 0.012 mg/dL
GLC [6]: 196.8 mg/dL
IP [6]: 7.3 mg/dL
K [6]: 4.7 meq/L
LDH [6]: 119.6 IU/L
Na [6]: 141.4 meq/L
PL [6]: 160 mg/dL
RALB [6]: 3.8 g/dL
TBIL [6]: 0.3 mg/dL
TC [6]: 82 mg/dL
TG [6]: 123.2 mg/dL
TP [6]: 5.9 g/dL
gamma-GTP [6]: 1.4 IU/L
A/G [7]: 2.2
ALP [7]: 942.2 IU/L
ALT [7]: 32.4 IU/L
AST [7]: 61 IU/L
BUN [7]: 20 mg/dL
CRE [7]: 0.5 mg/dL
Ca [7]: 10.9 mg/dL
Cl [7]: 105.2 meq/L
DBIL [7]: 0.01 mg/dL
GLC [7]: 201 mg/dL
IP [7]: 7.1 mg/dL
K [7]: 4.5 meq/L
LDH [7]: 104.8 IU/L
Na [7]: 141.4 meq/L
PL [7]: 157.6 mg/dL
RALB [7]: 3.9 g/dL
TBIL [7]: 0.3 mg/dL
TC [7]: 80 mg/dL
TG [7]: 106.8 mg/dL
TP [7]: 5.8 g/dL
gamma-GTP [7]: 1.8 IU/L
A/G [8]: 1.8
ALP [8]: 659.2 IU/L
ALT [8]: 30.8 IU/L
AST [8]: 62.8 IU/L
BUN [8]: 19.6 mg/dL
CRE [8]: 0.6 mg/dL
Ca [8]: 10.5 mg/dL
Cl [8]: 105.2 meq/L
DBIL [8]: 0.008 mg/dL
GLC [8]: 198.2 mg/dL
IP [8]: 6.2 mg/dL
K [8]: 4.5 meq/L
LDH [8]: 109.6 IU/L
Na [8]: 142.4 meq/L
PL [8]: 158.2 mg/dL
RALB [8]: 3.9 g/dL
TBIL [8]: 0.3 mg/dL
TC [8]: 71.8 mg/dL
TG [8]: 190.2 mg/dL
TP [8]: 6.1 g/dL
gamma-GTP [8]: 1 IU/L
